Test results reported in patent publication US20240010684A1, “MASP INHIBITORY COMPOUNDS AND USES THEREOF” (BAYER AKTIENGESELLSCHAFT, priority 2020, published 2024).
Where a SMILES comes first, the peptide text is derived from it. Bridges are numbered along the chain shown (N, C = ends). [ ]: non-standard residue; d: D form. Oic = O=C(O)[C@@H]1C[C@@H]2CCCC[C@@H]2N1; tBuAla = CC(C)(C)C[C@H](N)C(=O)O; PEG4 = NCCOCCOCCOCCOCCC(=O)O; Pen = CC(C)(S)[C@H](N)C(=O)O; NMeC = CN[C@@H](CS)C(=O)O; Ahx = NCCCCCC(=O)O; Sar = CNCC(=O)O

How the values were obtained:
human MASP2 = human MASP2 (Homo sapiens (Human), UniProt O00187); experiment: Biochemical human MASP2 assay (FRET substrate); details: Average IC50; recombinant human MASP2; read-out: human MASP2 IC50
From the text: The MASP1 or MASP2 expression vectors were transfected into the HEK293 (ATCC No. CRL-1573) cell line using Lipofectamine LTX® Reagent (Thermo-Fischer), as described by the manufacturer. The mature form of the recombinant human MASP1 and M[…] were secreted into the culture medium. The MASP1 and M[…] were purified from the conditioned media by affinity chromatography on Ni-NTA Superflow resin (Qiagen) as described by the manufacturer. 2.3 Biochemical Human MASP2 Assay […] The enzymatic reaction was initiated by addition of 25 μl of 60 μM solution of the FRET substrate DABCYL-[…]; […] The microtiter plate was incubated for 60-120 min at the temperature of 32 C. The increase of fluorescence intensity was measured in appropriate fluorescence plate reader (e.g. TECAN Ultra) using excitation wavelength of 340 nm and emission wavelength of 490 nm. IC50 values were calculated from percentage of inhibition of human MASP2 activity as a function of test compound concentration.

human MASP1 = human MASP1 (Homo sapiens (Human), UniProt P48740); experiment: Biochemical human MASP1 assay (FRET substrate); details: Average IC50; recombinant human MASP1; read-out: human MASP1 IC50
From the text: A truncated cDNA sequence of human MASP1 encoding the fragment corresponding to the amino acids 297-699 with a C-terminal His Tag and N-terminal Ig-kappa secretion signal (SEQ ID No: 2) was subcloned into the mammalian expression vector pcDNA3.1 (Invitrogen).
The MASP1 or MASP2 expression vectors were transfected into the HEK293 (ATCC No. CRL-1573) cell line using Lipofectamine LTX® Reagent (Thermo-Fischer), as described by the manufacturer. The mature form of the recombinant human MASP1 and MASP2 proteases were secreted into the culture medium. The MASP1 and MASP2 proteins were purified from the conditioned media by affinity chromatography on Ni-NTA Superflow resin (Qiagen) as described by the manufacturer.
2.2 Biochemical Human MASP1 Assay
Recombinant human MASP1 enzyme produced in the HEK 293 cells was diluted in the reaction buffer (50 mM HEPES pH 8,0; 100 mM NaCl; 0,01% CHAPS; 0.5 mM Gluthathione) to the concentration of 20 nM and 25 μl was transferred into each single well of 384-well white microtiter plate (Greiner Bio One 781075). 1 μl of the inhibitor compound solution (dissolved in DMSO, at the corresponding concentration) or pure DMSO as a control was added to the same wells. The enzymatic reaction was initiated by addition of 25 μl of 20 μM solution of the FRET substrate ABZ-[…]-Lys (Dnp)-NH2; (ABZ-2-aminobenzoyl; DNP 2,4-dinitrophenyl; custom synthesis by Jerini Peptide Technologies, Berlin) in the reaction buffer. The microtiter plate was incubated for 60-120 min at the temperature of 32 C. The increase of fluorescence intensity was measured in appropriate fluorescence plate reader (e.g. TECAN Ultra) using excitation wavelength of 320 nm and emission wavelength of 420 nm. IC50 values were calculated from percentage of inhibition of human MASP1 activity as a function of test compound concentration.

Sequence of human MASP1 (P48740 other isoform, or with tags, fused parts or gaps): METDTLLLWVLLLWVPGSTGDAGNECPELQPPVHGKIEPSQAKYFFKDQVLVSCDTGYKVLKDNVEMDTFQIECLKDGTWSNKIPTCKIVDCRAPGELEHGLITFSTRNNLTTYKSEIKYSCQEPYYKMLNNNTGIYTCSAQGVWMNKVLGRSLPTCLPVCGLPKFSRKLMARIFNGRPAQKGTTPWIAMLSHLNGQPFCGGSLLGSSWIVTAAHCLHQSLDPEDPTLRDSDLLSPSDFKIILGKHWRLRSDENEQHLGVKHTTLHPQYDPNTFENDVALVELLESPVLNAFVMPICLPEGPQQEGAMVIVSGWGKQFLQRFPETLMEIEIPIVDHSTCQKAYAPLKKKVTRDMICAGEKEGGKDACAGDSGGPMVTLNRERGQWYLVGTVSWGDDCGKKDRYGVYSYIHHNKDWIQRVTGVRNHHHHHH
Sequence of human MASP2 (O00187 other isoform, or with tags, fused parts or gaps): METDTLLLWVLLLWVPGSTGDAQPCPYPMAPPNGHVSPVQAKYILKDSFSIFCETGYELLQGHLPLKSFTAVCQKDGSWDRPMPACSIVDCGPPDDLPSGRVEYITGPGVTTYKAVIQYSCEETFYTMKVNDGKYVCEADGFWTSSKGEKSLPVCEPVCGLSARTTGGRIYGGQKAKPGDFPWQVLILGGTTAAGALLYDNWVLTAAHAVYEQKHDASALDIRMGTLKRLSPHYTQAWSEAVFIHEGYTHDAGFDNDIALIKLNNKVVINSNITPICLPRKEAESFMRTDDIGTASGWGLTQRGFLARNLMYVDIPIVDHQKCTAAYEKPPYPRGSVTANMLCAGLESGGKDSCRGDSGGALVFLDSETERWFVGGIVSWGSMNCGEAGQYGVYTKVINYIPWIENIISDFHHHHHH

Row | IC50 (human MASP2) [nM] | IC50 (human MASP1) [nM] | Compound
1 | 180 | 9.7 | CC[C@H](C)[C@@H]1NC(=O)CNC(=O)CN(C)C(=O)CCCCCNC(=O)CC[C@@H](C(N)=O)NC(=O)[C@@H]2CCCN2C(=O)[C@H]([C@@H](C)CC)NC(=O)[C@H]2NC(=O)[C@H]([C@@H](C)CC)NC(=O)[C@@H]3C[C@@H]4CCCC[C@@H]4N3C(=O)[C@@H]3CCCN3C(=O)[C@H](CC(C)C)NC(=O)[C@H](CO)NC(=O)[C@H](CCCNC(=N)N)NC(=O)[C@H](CO)NC(=O)[C@H](CSSC2(C)C)NC1=O [Example 76] ([Ahx][Sar]GICSRSLP[Oic]I[Pen]IPE-NH2; disulfide 5-13; lactam N-16)
2 | 140 | 19 | CC[C@H](C)[C@@H]1NC(=O)CNC(=O)CCCCCNC(=O)C[C@@H](C(N)=O)NC(=O)[C@@H]2CCCN2C(=O)[C@H]([C@@H](C)CC)NC(=O)[C@H]2NC(=O)[C@H]([C@@H](C)CC)NC(=O)[C@@H]3C[C@@H]4CCCC[C@@H]4N3C(=O)[C@@H]3CCCN3C(=O)[C@H](CC(C)C)NC(=O)[C@H](CO)NC(=O)[C@H](CCCNC(=N)N)NC(=O)[C@H](CO)NC(=O)[C@H](CSSC2(C)C)NC1=O [Example 49] ([Ahx]GICSRSLP[Oic]I[Pen]IPD-NH2; disulfide 4-12; lactam N-15)
3 | 170 | 12 | CC[C@H](C)[C@@H]1NC(=O)[C@H](C)NC(=O)CNC(=O)[C@H](C)NC(=O)[C@H](CC(=O)O)NC(=O)[C@@H]2CCCN2C(=O)[C@H]([C@@H](C)CC)NC(=O)[C@H]2NC(=O)[C@H]([C@@H](C)CC)NC(=O)[C@@H]3CCCN3C(=O)[C@@H]3CCCN3C(=O)[C@H](CC(C)(C)C)NC(=O)[C@H](CO)NC(=O)[C@H](CCCNC(=N)N)NC(=O)[C@H](CO)NC(=O)[C@H](CSSC2(C)C)NC1=O [Example 26] (cyclo(AGAICSRS[tBuAla]PPI[Pen]IPD); disulfide 5-13)
4 | 190 | 5.9 | CC[C@H](C)[C@@H]1NC(=O)[C@H](C)NC(=O)CNC(=O)[C@H](C)NC(=O)C[C@@H](C(N)=O)NC(=O)[C@@H]2CCCN2C(=O)[C@H]([C@@H](C)CC)NC(=O)[C@H]2NC(=O)[C@H]([C@@H](C)CC)NC(=O)[C@@H]3C[C@@H]4CCCC[C@@H]4N3C(=O)[C@@H]3CCCN3C(=O)[C@H](CC(C)C)NC(=O)[C@H](CO)NC(=O)[C@H](CCCNC(=N)N)NC(=O)[C@H](CO)NC(=O)[C@H](CSSC2(C)C)NC1=O [Example 41] (AGAICSRSLP[Oic]I[Pen]IPD-NH2; disulfide 5-13; lactam N-16)
5 | 300 | 120 | CC[C@H](C)[C@@H]1NC(=O)CNC(=O)CNC(=O)[C@H](CC(=O)O)NC(=O)[C@@H]2CCCN2C(=O)[C@H]([C@@H](C)CC)NC(=O)[C@@H]2CSSC[C@H](NC1=O)C(=O)N[C@@H](CO)C(=O)N[C@@H](CCCNC(=N)N)C(=O)N[C@@H](CO)C(=O)N[C@@H](CC(C)C)C(=O)N1CCC[C@H]1C(=O)N1CCC[C@H]1C(=O)N[C@@H]([C@@H](C)CC)C(=O)N2 [Example 15, [(6S,9S,12S,15S,18R,21S,30S,32aS,38S,41R,44S,46aS,51aS)-21,38,44-tri[(2S)-butan-2-yl]-12-(3-carbamimidamidopropyl)-9,15-bis(hydroxymethyl)-6-(2-methylpropyl)-5,8,11,14,17,20,23,26,29,32,37,40,43,46,51-pentadecaoxopentacontahydro-1H-18,41-(methanodithiomethano)tripyrrolo[1,2-a:1′,2′-d:1″,2″-p][1,4,7,10,13,16, 19,22,25,28,31,34,37,40,43]pentadecaazacyclopentatetracontin-30-yl]acetic acid] (cyclo(CIPDGGICSRSLPPI); disulfide 1-8)
6 | 90 | 7.1 | CC[C@H](C)[C@@H]1NC(=O)CNC(=O)CCCCCNC(=O)C[C@@H](C(N)=O)NC(=O)[C@@H]2CCCN2C(=O)[C@H]([C@@H](C)CC)NC(=O)[C@@H]2CSSC[C@H](NC1=O)C(=O)N[C@@H](CO)C(=O)N[C@@H](CCCNC(=N)N)C(=O)N[C@@H](CO)C(=O)N[C@@H](CC(C)(C)C)C(=O)N1CCC[C@H]1C(=O)N1CCC[C@H]1C(=O)N[C@@H]([C@@H](C)CC)C(=O)N2C [Example 40] ([Ahx]GICSRS[tBuAla]PPI[NMeC]IPD-NH2; disulfide 4-12; lactam N-15)
7 | 240 | 170 | CC[C@H](C)[C@@H]1NC(=O)CNC(=O)CCOCCOCCOCCOCCNC(=O)[C@H](CC(=O)O)NC(=O)[C@@H]2CCCN2C(=O)[C@H]([C@@H](C)CC)NC(=O)[C@@H]2CSSC[C@H](NC1=O)C(=O)N[C@@H](CO)C(=O)N[C@@H](CCCNC(=N)N)C(=O)N[C@@H](CO)C(=O)N[C@@H](CC(C)C)C(=O)N1CCC[C@H]1C(=O)N1CCC[C@H]1C(=O)N[C@@H]([C@@H](C)CC)C(=O)N2 [Example 14] (cyclo(CIPD[PEG4]GICSRSLPPI); disulfide 1-8)
8 | 160 | 14 | CC[C@H](C)[C@@H]1NC(=O)[C@H](C)NC(=O)CCCCCNC(=O)CC[C@@H](C(N)=O)NC(=O)[C@@H]2CCCN2C(=O)[C@H]([C@@H](C)CC)NC(=O)[C@H]2NC(=O)[C@H]([C@@H](C)CC)NC(=O)[C@@H]3C[C@@H]4CCCC[C@@H]4N3C(=O)[C@@H]3CCCN3C(=O)[C@H](CC(C)C)NC(=O)[C@H](CO)NC(=O)[C@H](CCCNC(=N)N)NC(=O)[C@H](CO)NC(=O)[C@H](CSSC2(C)C)NC1=O [Example 74] ([Ahx]AICSRSLP[Oic]I[Pen]IPE-NH2; disulfide 4-12; lactam N-15)
9 | 110 | 100 | CC[C@H](C)[C@@H]1NC(=O)CCCCCNC(=O)[C@H]([C@@H](C)CC)NC(=O)[C@@H]2CSSC[C@H](NC1=O)C(=O)N[C@@H](CO)C(=O)N[C@@H](CCCNC(=N)N)C(=O)N[C@@H](CO)C(=O)N[C@@H](CC(C)C)C(=O)N1CCC[C@H]1C(=O)N1[C@@H](C[C@@H]3CCCC[C@@H]31)C(=O)N[C@@H]([C@@H](C)CC)C(=O)N2 [Example 95, N-{3-[(6S,9S,12S,15S,18R,21S,31S,34R,37S,39aS,40aS,44aS,46aS)-21,31,37-tri[(2S)-butan-2-yl]-9,15-bis(hydroxymethyl)-6-(2-methylpropyl)-5,8,11,14,17,20,23,30,33,36,39,46-dodecaoxohexatetracontahydro-1H,5H-18,34-(methanodithiomethano)pyrrolo[2′,1′:15,16][1,4,7,10,13,16,19,22,25,28,31,34]dodecaazacyclotetracontino[13,12-a]indol-12-yl]propyl}guanidine] (cyclo([Ahx]ICSRSLP[Oic]ICI); disulfide 3-11)
10 | 70 | 10 | CC[C@H](C)[C@@H]1NC(=O)CNC(=O)CCCCCNC(=O)C[C@@H](C(N)=O)NC(=O)[C@@H]2CCCN2C(=O)[C@H]([C@@H](C)CC)NC(=O)[C@H]2NC(=O)[C@H]([C@@H](C)CC)NC(=O)[C@@H]3CCCN3C(=O)[C@@H]3CCCN3C(=O)[C@H](CC(C)(C)C)NC(=O)[C@H](CO)NC(=O)[C@H](CCCNC(=N)N)NC(=O)[C@H](CO)NC(=O)[C@H](CSSC2(C)C)NC1=O [Example 48] ([Ahx]GICSRS[tBuAla]PPI[Pen]IPD-NH2; disulfide 4-12; lactam N-15)
11 | 66 | 8.2 | CC[C@H](C)[C@@H]1NC(=O)CNC(=O)CNC(=O)[C@H](C)NC(=O)[C@@H](CC(=O)O)NC(=O)[C@@H]2CCCN2C(=O)[C@H]([C@@H](C)CC)NC(=O)[C@@H]2CSSC[C@H](NC1=O)C(=O)N[C@@H](CO)C(=O)N[C@@H](CCCNC(=N)N)C(=O)N[C@@H](CO)C(=O)N[C@@H](CC(C)(C)C)C(=O)N1CCC[C@H]1C(=O)N1CCC[C@H]1C(=O)N[C@@H]([C@@H](C)CC)C(=O)N2C [Example 47] (cyclo(AGGICSRS[tBuAla]PPI[NMeC]IP[dD]); disulfide 5-13)
12 | 37.5 | 9.1 | CC[C@H](C)[C@@H]1NC(=O)[C@H](C)NC(=O)CCCCCNC(=O)[C@H](CC(=O)O)NC(=O)[C@@H]2CCCN2C(=O)[C@H]([C@@H](C)CC)NC(=O)[C@H]2NC(=O)[C@H]([C@@H](C)CC)NC(=O)[C@@H]3CCCN3C(=O)[C@@H]3CCCN3C(=O)[C@H](CC(C)(C)C)NC(=O)[C@H](CO)NC(=O)[C@H](CCCNC(=N)N)NC(=O)[C@H](CO)NC(=O)[C@H](CSSC2(C)C)NC1=O [Example 27] (cyclo(AICSRS[tBuAla]PPI[Pen]IPD[Ahx]); disulfide 3-11)
